pKi: −log10 of the molar value. Read-outs that look alike come from different tables or passages of the source. Marks after values point to notes of the source that are not given here.
Experiments:
[1] = male, Sprague Dawley, rat, microsomes
Procedure: (§1) The final organic content in liver microsomal incubations was 0.5%.
Liver microsomal protein (25 uL for 0.5 mg/mL; 15 uL for 0.3 mg/mL), NADPH (100 uL, 2 mM final concentration) and phosphate buffer (870 uL for 0.5 mg/mL; 880 uL for 0.3 mg/mL) were incubated in a microfuge tube in an orbital shaker incubator for 10 min maintained at 37° C. Reactions were initiated by spiking 5 uL of 2 mM and 0.2 mM 5-bromo-2,6-di(1H-pyrazol-1-yl)pyrimindin-4-amine([…]; […]; 0.5% final DMSO concentration) and samples incubated at 37° C. Aliquots (200 uL) were withdrawn from the reaction tube at 0, 60 and 120 minutes and the reaction was quenched by addition of 100 uL acetonitrile. Reactions were performed in duplicates. The quenched samples were centrifuged at 14000 rpm (approximately 21000 g) for 10 minutes(Eppendorf Centrifuge 5810 R) and supernatant was analyzed by LCMS/MS.
(§2) Control incubations (no NADPH added) and blank incubations (no test item added) were performed in singlet for each species. These samples were withdrawn at 0 and 120 min and quenched using acetonitrile. The supernatant was analyzed for any non microsomal degradation and matrix interference. […] Reaction and control experiments were performed in singlet.

[2] = Procedure: as §1
Liver microsomal protein (25 uL for 0.5 mg/mL; 15 uL for 0.3 mg/mL), NADPH (100 uL, 2 mM final concentration) and phosphate buffer (870 uL for 0.5 mg/mL; 880 uL for 0.3 mg/mL) were incubated in a microfuge tube in an orbital shaker incubator for 10 min maintained at 37° C. Reactions were initiated by spiking 5 uL of 2 mM and 0.2 mM 5-bromo-2,6-di(1H-pyrazol-1-yl)pyrimindin-4-amine(10 uM final concentrations for 0.5 mg/mL protein; 1 uM final concentration for 0.3 mg/mL protein; 0.5% final DMSO concentration) and samples incubated at 37° C. Aliquots (200 uL) were withdrawn from the reaction tube at 0, 60 and 120 minutes and the reaction was quenched by addition of 100 uL acetonitrile. Reactions were performed in duplicates. The quenched samples were centrifuged at 14000 rpm (approximately 21000 g) for 10 minutes(Eppendorf Centrifuge 5810 R) and supernatant was analyzed by LCMS/MS.
as §2

[3] = target: T1, human adenosine A2A receptor (Homo sapiens, UniProt P29274); assay: In vitro hA2A radioligand binding assay; conditions: [3H]-ZM241385 competition, HEK-293 membranes; Ki from IC50 by Cheng-Prusoff
T1 construct: purchased Perkin Elmer RBHA2AM400UA; host or cells: HEK-293 cells stably expressing the receptor (membrane preparation)
T1 sequence (P29274 whole entry): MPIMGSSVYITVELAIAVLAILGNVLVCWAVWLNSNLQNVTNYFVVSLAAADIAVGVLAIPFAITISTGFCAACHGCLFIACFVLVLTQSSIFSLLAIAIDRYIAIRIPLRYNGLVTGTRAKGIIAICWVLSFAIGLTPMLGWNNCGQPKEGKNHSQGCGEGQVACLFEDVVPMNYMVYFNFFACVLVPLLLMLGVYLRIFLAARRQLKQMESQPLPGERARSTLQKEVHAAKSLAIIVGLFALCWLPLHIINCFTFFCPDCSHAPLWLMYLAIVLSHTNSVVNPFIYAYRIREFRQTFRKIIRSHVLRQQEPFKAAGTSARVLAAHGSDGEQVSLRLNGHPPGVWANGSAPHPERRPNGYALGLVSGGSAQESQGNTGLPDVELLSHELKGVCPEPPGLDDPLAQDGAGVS

[4] = format: in vitro ADME; conditions: for Percentage area ratio with respect to parent (10 uM): 0 min
Procedure: • ACN: acetonitrile • CC: calibration curve • IS: internal standard • DMSO: dimethylsulfoxide • MRM: multiple reaction monitoring • […]: nicotinamide adenine dinucleotide phosphate (reduced) • Rpm: revolution per minute Liver Microsomes • Rat liver microsomes (male, pooled, Sprague Dawley) • Source: XenoTech, LLC (Kansas, USA) • Protein content: 20 mg/mL • Catalogue number: R I 000, Lot number: 0710623 • Dog liver microsomes (male, pooled, Beagle) • Source: XenoTech, LLC (Kansas, USA) • Protein content: 20 mg|mL • Catalogue number: D I 000, Lot number: 0810143 • Human liver microsomes (mixed gender, pooled) • Source: XenoTech, LLC (Kansas, USA) • Protein content: 20 mg|mL • Catalogue number: H061 0, Lot number: 101042 Stock Solutions and Reagents Test Item
(§3) Reactions were performed in duplicates.
(§4) Reaction and control experiments were performed in singlet.
Samples were processed using protein precipitation method and then analyzed by employing linear gradient with a run time of 28 min in HPLC coupled with tandem mass spectrometry (API 4000 mass spectrometer). Each sample was injected and scanned separately for Q1 (MH+/MH−) and MS/MS.
The different possible metabolite peaks were identified in Q1 scan after assessing for matrix interference using test item free blank samples, and were confirmed from the fragmentation pattern (MSIMS scan).
An alternate analytical method was also developed to increase the retention times and to assess other metabolites apart from the identified M-1 metabolite. Aqueous solutions of 1-(6-amino-5-bromo-2-(1H-pyrazol-1-yl)pyrimidin-4-yl)-1H-pyrazol-4-ol and 1-(4-amino-5-bromo-6-(1H-pyrazol-1-yl)pyrimidin-2-yl)-1H-pyrazol-4-ol (1 uM) were co-chromatographed with the in vitro incubated samples employing modified analytical method to confirm the identity.

[5] = Mass balance determination in human liver microsomes (MRM analysis); format: in vitro ADME
Procedure: as §3
An aliquot (25 uL) of these samples were further diluted with 100 uL of internal standard (Haloperidol, 1 ug|mL in acetonitrile).
The incubation samples were also prepared similar to that of the calibration standards by adding 25 uL of the quenched sample with 100 uL of internal standard.

[6] = Liver microsomal incubations compared across tested species; format: in vitro ADME, rat, dog, human
Procedure: as §3, §4

[7] = human liver microsomes, parent 10 uM, 0 min, Set-1
[8] = human liver microsomes, parent 10 uM, 0 min, Set-2
[9] = human liver microsomes, parent 10 uM, 30 min, Set-1
[10] = human liver microsomes, parent 10 uM, 30 min, Set-2
[11] = human liver microsomes, parent 10 uM, 60 min, Set-1
[12] = human liver microsomes, parent 10 uM, 60 min, Set-2

For O=C(O)Cc1ccccc1Nc1c(Cl)cccc1Cl [Diclofenac], the “% remaining” value ([1]; 0 h, 0.5 uM) was 100%, the “% remaining” value ([1]; 1 h, 0.5 uM) was 12% and the “% remaining” value ([2]; both, human, microsomes, 0 h, 0.5 uM) was 100%. The “% remaining” value ([2]; both, human, microsomes, 1 h, 0.5 uM) was 100%.

With Nc1nc(-n2cc(O)cn2)nc(-n2cccn2)c1Br [Example 1, 1-(4-amino-5-bromo-6-(1H-pyrazol-1-yl)pyrimidin-2-yl)-1H-pyrazol-4-ol] the pKi [3] was 7.30, the “Percentage area ratio with respect to parent (10 uM)” value (from here on “Percentage area ratio”) ([4]; male, Beagle, dog) was 0.01% and the “percentage of M-I metabolite in human liver microsomes” value ([5]; after 60 minutes of incubation with parent, % of the parent) was 15-20%. For the same molecule, the “% M-I detected” value [5, 7] was 0%, the “M-I Concentration” value [5, 7] was 0 µM and the “% M-I detected” value [5, 8] was 0%. For the same molecule, the “M-I Concentration” value [5, 8] was 0 µM, the “% M-I detected” value [5, 9] was 10.95% and the “M-I Concentration” value [5, 9] was 1.29 µM. The “% M-I detected” value [5, 10] was 7.97%, the “M-I Concentration” value [5, 10] was 0.92 µM and the “% M-I detected” value [5, 11] was 18.93%. The “M-I Concentration” value [5, 11] was 2.23 µM, the “% M-I detected” value [5, 12] was 15.08% and the “M-I Concentration” value [5, 12] was 1.74 µM. The “percentage of metabolite with respect to parent” value ([6]; rat, dog and human liver microsomes, assumes equal ionization efficiency) was “uniformly low”.

With Nc1nc(-n2cccn2)nc(-n2cccn2)c1Br [Parent, 5-bromo-2,6-di(1H-pyrazol-1-yl)pyrimindin-4-amine] the “Percentage area ratio” value ([4]; both, human) was 100%, the “Percentage area ratio” value ([4]; male, Beagle, dog) was 100% and the “Percentage area ratio” value ([4]; male, Sprague Dawley, rat) was 100%. For the same molecule, the “% metabolism of parent at 120 min” value ([4]; male, Sprague Dawley, rat, 120 min, 10 uM) was 0%, the “Concentration of Analyte metabolized” value ([4]; male, Sprague Dawley, rat, microsomes, 2 h, 10 uM) was 0 nM and the “% remaining” value ([1]; 0 h, 1 uM) was 100%. For the same molecule, the “% metabolism of parent at 120 min” value ([2]; both, human, 1 uM) was 76%, the “% remaining” value ([2]; both, human, microsomes, 0 h, 1 uM) was 100% and the “% metabolism of parent at 120 min” value ([2]; human, 1 uM) was 78%. The “% metabolism of parent at 120 min” value ([2]; male, Beagle, dog, 1 uM) was 83%, the “% remaining” value ([2]; male, Beagle, dog, microsomes, 0 h, 1 uM) was 100% and the “Concentration of Analyte metabolized” value ([2]; male, Beagle, dog, microsomes, 2 h, 1 uM) was 830 nM. For the same molecule, the “% parent Remaining” value [5, 7] was 100%, the “Parent Concentration” value [5, 7] was 11.78^a uM and the “% parent Remaining” value [5, 9] was 96.26%. The Mass balance [5, 9] was 107.22%, the “Parent Concentration” value [5, 9] was 11.34^a uM and the “% parent Remaining” value [5, 11] was 88%. The Mass balance [5, 11] was 107.81%, the “Parent Concentration” value [5, 11] was 10.47^a uM and the “Parent Concentration” value ([5]; human, 0 min, 10 uM) was 11.54^a uM. The Mass balance ([5]; human, 30 min, 10 uM) was 95.41%, the “Parent Concentration” value ([5]; human, 30 min, 10 uM) was 10.09^a uM and the Mass balance ([5]; human, 60 min, 10 uM) was 94.63%. For the same molecule, the “Parent Concentration” value ([5]; human, 60 min, 10 uM) was 9.18 µM, the “% parent Remaining” value ([5]; human, microsomes, 0 h, 10 uM) was 100% and the “% parent Remaining” value ([5]; human, microsomes, 0.5 h, 10 uM) was 87.44%. For the same molecule, the “% parent Remaining” value ([5]; human, microsomes, 1 h, 10 uM) was 79.55%, the “mass balance for the metabolism in human liver microsomes” value ([5]; text summary of Table 7) was 95 to 107% and the “relative metabolism across tested species” value ([6]; 1 uM, 0.3 mg/mL microsomal protein, DLM, HLM, RLM = dog, human, rat liver microsomes) was “DLM>HLM>RLM”. The “stability in control incubations (no NADPH added)” value ([6]; liver microsomes, indicating no non-CYP mediated metabolism) was “stable up to 120 min”.

From patent publication US11078191B2, “1-(4-amino-5-bromo-6-(1H-pyrazol-1-yl)pyrimidin-2-yl)-1H-pyrazol-4-ol and use thereof in the treatment of cancer” (Novartis AG, priority 2017, dated 2021)
